What was measured:
[1] = tested on: Staphylococcus aureus ATCC 6538, Enterobacter aerogenes ATCC 13048, and Escherichia coli ATCC 8739; assay: Biocidal efficacy: minimum biocide concentration for 99.9% bacterial kill in inoculated salt solution with re-challenges; assay type: cell-based; details: alone or in the combination, 37° C.
Protocol: (§1) The synergy indexes reported in the following examples are calculated using the following equation: Synergy Index=Ca/CA+Cb/CB
Ca: Concentration of biocide A required to achieve a certain level of bacterial kill when used in combination with B.
CA: Concentration of biocide A required to achieve a certain level of bacterial kill when used alone.
Cb: Concentration of biocide B required to achieve a certain level of bacterial kill when used in combination with A.
CB: Concentration of biocide B required to achieve a certain level of bacterial kill when used alone.
(§2) A synergy index (SI) of 1 indicates additivity, a synergy index of less than 1 indicates synergy, and a synergy index greater than 1 indicates antagonism.
A sterile salt solution (0.2203 g of CaCl2, 0.1847 g of MgSO4, and 0.2033 g of NaHCO3 in 1 L water) is inoculated with approximately 10^7 CFU/mL of Staphylococcus aureus ATCC 6538, Enterobacter aerogenes ATCC 13048, and Escherichia coli ATCC 8739. Aliquots of the cell suspension are then treated with THPS, BIT, and combinations of these actives at selected concentrations and incubated at 37° C. for 14 days. After incubation for 24 hours, 3 days, and 7 days, the aliquots are re-challenged with bacterial suspension of the same bacteria at a final bacterial concentration of 10^5 CFU/mL. The biocidal efficacy is measured at 2 hours and 14 days by determining the minimum biocide concentration for 99.9% bacterial kill in the aliquots. Synergy Index is then calculated. Table 1 and 2 summarize the efficacy of each biocide and their combinations at 2 hour and 14 day treatment time respectively, and the resulting Synergy Index of each combination.

[2] = tested on: Candida albican, ATCC #10231; assay: 96 well micro titer plate MIC / synergy assay in SDB; assay type: cell-based; details: alone or in the combination, 48 hours
Protocol: as §1, §2

Molecule: O=c1[nH]sc2ccccc12 [BIT, 1,2-benzisothiazolin-3-one]
- Concentration (ppm active) for 99.9% bacterial kill in 2 hours, BIT ([1]; BIT concentration, 2 hour treatment): >300 ppm active
- Concentration (ppm active) for 99.9% bacterial kill in 14 days, BIT ([1]; BIT concentration, 14 day treatment, re-challenged at 24 hours, 3 days, 7 days): 150 ppm active

Molecule: Cn1sc2ccccc2c1=O [MBIT, 2-methyl-1,2-benzisothiazolin-3-one]
- Minimum Inhibitory Concentration against Candida albican (ppm), MBIT ([2]; MBIT concentration): 0.375 ppm

Molecule: tetrakis (hydroxymethyl) phosphonium sulfate [THPS]
- Minimum Inhibitory Concentration against Candida albican (ppm), THPS ([2]; THPS concentration): 1000 ppm
- Concentration (ppm active) for 99.9% bacterial kill in 2 hours, THPS ([1]; THPS concentration, 2 hour treatment): 38 ppm active
- Concentration (ppm active) for 99.9% bacterial kill in 14 days, THPS ([1]; THPS concentration, 14 day treatment, re-challenged at 24 hours, 3 days, 7 days): >300 ppm active
